Laboratory results from PubChem BioAssay AID743384 (Vanderbilt Specialized Chemistry Center, 2014).
Calls of active or inactive are those of the source. The rule behind the calls is not given here.

Key:
[1] = molecular target: Metabotropic glutamate receptor 7 (Rattus norvegicus) (UniProt P35400); test: mGlu7 positive allosteric modulators, dose response, cell-based, calcium mobilization, Galpha15 (AID 743384); details: mGlu7/Ga15, calcium fluorescence PAM; active compounds read high
[2] = molecular target: Metabotropic glutamate receptor 7 (Homo sapiens) (UniProt Q14831); test: as above; details: mGlu7/Ga15, calcium fluorescence PAM
Sequence of Metabotropic glutamate receptor 7 (Homo sapiens) (Q14831 whole entry, looked up): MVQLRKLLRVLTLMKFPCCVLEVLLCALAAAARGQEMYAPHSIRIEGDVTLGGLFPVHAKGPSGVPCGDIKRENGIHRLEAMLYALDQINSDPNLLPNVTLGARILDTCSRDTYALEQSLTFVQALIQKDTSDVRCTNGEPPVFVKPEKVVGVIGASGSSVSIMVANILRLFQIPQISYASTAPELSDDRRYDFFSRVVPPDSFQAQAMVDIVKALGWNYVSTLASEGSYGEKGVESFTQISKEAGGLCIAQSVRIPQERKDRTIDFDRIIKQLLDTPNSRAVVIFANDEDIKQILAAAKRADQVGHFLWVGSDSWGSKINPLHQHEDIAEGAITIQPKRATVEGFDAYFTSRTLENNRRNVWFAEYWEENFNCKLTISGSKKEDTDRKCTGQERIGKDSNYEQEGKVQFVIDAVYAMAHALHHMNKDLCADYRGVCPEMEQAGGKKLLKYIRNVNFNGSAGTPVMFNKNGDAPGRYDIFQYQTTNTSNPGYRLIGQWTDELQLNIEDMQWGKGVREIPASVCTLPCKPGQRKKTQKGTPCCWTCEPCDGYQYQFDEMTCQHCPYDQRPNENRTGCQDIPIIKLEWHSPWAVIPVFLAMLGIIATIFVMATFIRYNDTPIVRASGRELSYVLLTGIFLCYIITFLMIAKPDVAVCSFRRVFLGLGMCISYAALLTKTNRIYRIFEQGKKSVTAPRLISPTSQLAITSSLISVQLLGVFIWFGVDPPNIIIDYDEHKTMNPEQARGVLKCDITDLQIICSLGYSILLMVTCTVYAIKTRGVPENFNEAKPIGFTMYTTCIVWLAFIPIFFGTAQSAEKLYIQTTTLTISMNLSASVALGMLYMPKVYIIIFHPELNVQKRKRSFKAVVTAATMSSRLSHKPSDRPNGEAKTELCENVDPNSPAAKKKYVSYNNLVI

Sequence of Metabotropic glutamate receptor 7 (Rattus norvegicus) (P35400 whole entry, looked up): as the sequence (Q14831 whole entry, looked up) above, with R5G, A27V, N454H, S488T, A520S, D578N counted along it

SMILES | % glutamate max response [1] | EC50 [2] [µM]
COC(=O)c1ccc(-n2c(C)cc(C(=O)CNc3ccc(C(=O)O)cc3)c2C)cc1 | inactive | 
CCOc1ccc(-n2c(C)cc(C(=O)CSc3ccc(OC)cc3)c2C)cc1 | inactive | 
COC(=O)c1ccc(-n2c(C)cc(C(=O)COc3cccc(N(C)C)c3)c2C)cc1 | inactive | 
COC(=O)c1ccc(-n2c(C)cc(C(=O)CSc3ccc(NC(C)=O)cc3)c2C)cc1 |  | 1.5
